From patent publication US10098949B2, “Adsorption of immunopotentiators to insoluble metal salts” (GlaxoSmithKline Biologicals SA, priority 2010, dated 2018)
Where two headings read alike, the source gives them in different places.

Tests used:
[1] = Model of in vivo desorption from Al—H; format: in vitro ADME; settings: 37° C., after 5 hours
[2] = Adsorption to aluminium hydroxide (Al—H) adjuvant, supernatant by HPLC; format: physicochemical; settings: for % adsorption to Al—H: 10 mM histidine buffer, pH 6.5; for Adsorption Efficiency to aluminum hydroxide: 3 mg/mL aluminum hydroxide, 0.5 mg/mL compound, no buffer, room temperature overnight, RP-HPLC
[3] = system: serogroup B meningococcus; format: in vivo
[4] = Solubility in water and in histidine buffer; format: physicochemical; settings: pH 6.8
human PBMCs = experiment: Activity in human PBMCs; format: cell-based
human TLR7 = target: T1, human TLR7 (Homo sapiens, UniProt Q9NYK1); experiment: HEK293 human TLR7 NF-κB luciferase reporter assay; format: cell-based; settings: HEK293 cells
T1 construct: expressed in transfected cells; host or cells: HEK293
T1 sequence (Q9NYK1 27-1049): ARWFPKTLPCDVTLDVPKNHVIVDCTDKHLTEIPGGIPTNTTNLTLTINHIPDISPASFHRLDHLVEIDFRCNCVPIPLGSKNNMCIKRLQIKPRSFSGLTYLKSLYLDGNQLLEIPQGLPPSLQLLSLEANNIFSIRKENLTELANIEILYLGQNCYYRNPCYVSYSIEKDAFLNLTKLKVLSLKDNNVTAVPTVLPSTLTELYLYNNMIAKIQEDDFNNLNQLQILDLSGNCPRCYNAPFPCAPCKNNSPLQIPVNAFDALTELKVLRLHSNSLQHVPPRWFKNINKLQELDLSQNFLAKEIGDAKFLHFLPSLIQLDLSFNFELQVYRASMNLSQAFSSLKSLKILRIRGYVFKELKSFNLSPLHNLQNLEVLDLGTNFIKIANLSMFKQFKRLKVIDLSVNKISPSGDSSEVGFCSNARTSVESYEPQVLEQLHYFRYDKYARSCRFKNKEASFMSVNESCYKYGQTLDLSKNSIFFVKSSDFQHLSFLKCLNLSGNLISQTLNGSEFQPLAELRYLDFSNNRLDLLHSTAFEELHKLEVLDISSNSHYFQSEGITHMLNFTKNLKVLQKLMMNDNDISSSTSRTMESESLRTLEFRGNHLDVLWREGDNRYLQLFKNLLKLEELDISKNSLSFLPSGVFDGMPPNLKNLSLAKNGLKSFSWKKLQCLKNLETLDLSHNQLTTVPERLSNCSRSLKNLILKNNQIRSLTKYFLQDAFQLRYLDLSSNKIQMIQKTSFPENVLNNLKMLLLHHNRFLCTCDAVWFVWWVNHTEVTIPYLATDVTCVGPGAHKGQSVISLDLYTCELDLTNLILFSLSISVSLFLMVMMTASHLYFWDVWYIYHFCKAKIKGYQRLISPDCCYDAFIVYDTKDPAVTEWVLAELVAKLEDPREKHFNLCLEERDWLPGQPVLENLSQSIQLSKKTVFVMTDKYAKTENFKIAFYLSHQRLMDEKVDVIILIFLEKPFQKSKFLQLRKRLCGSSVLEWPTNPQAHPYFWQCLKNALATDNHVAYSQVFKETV
Procedure: The activity of this compound is assessed in an assay using HEK293 cells which are stably transfected with human TLR7 and an NF-κB-driven luciferase reporter vector (pNifty-Luciferase). As a control assay, normal HEK293 transfected with pNifty-Luc are used. Cells are cultured in DMEM supplemented with 2 mM L-glutamine, 10% heart inactivated FBS, 1% penicillin and streptomycin, 2 μg/ml puromycin and 5 μg/ml of blasticidin. Bright-Glo™ Luciferase assay buffer and substrate are supplied by Promega. Cells are plated at 25,000 cells/well in 384-well plates in a final volume of 50 μl of media. Cells are allowed to adhere to the plates after overnight (18 hours) culture at 37° C. and 5% CO2. Serially-diluted experimental and positive control compounds are then dispensed to each well and incubated for 7 hours at 37° C. and 5% CO2. Cells stimulated with DMSO alone serve as negative controls. After the incubation, 30 μl of the pre-mix assay buffer and substrate buffer are added to each well according to manufacturer's instructions. The luminescence signal is read on a CLIPR machine with an integration time of 20 seconds per plate.

[5] = Muscle levels 24 hours after intramuscular injection; format: in vivo, Balb/C mice; settings: for level of compound in muscle: 24 hours after i.m. injection
splenocytes = experiment: Activity in splenocytes; format: cell-based
serum cytokines = settings: in vivo
[6] = Association with Al—H particles by confocal microscopy and flow cytometry; format: physicochemical; settings: confocal microscopy (compound 1) or flow cytometry (compounds 2, O)
[7] = SIF (simulated interstitial fluid)
[8] = 5CVMB, CD-1 mice, days 0 & 14, (b) the agonist compound

## Cc1cc(OCCCC(F)(F)P(=O)(O)O)ccc1CCc1cnc2c(N)nc3cc(CCC(=O)O)ccc3c2c1 [Compound 3]
[1]; His buff
  proportion desorbed from Al—H: 5%
[1]; Plasma/His buff
  proportion desorbed from Al—H: 49%
[1]; [7]
  proportion desorbed from Al—H: 100%
[2]
  compound in supernatant after mixing with aluminium hydroxide (HPLC): neither compound is observed in the supernatant
  % adsorption to Al—H: 96.2%

## Cc1cc(OCCOCCOCCC(F)(F)P(=O)(O)O)ccc1CCc1cnc2c(N)nc3cc(CCC(=O)O)ccc3c2c1 [Compound 4]
[1]; His buff
  proportion desorbed from Al—H: 4%
[1]; Plasma/His buff
  proportion desorbed from Al—H: 81%
[1]; [7]
  proportion desorbed from Al—H: 100%
[2]
  compound in supernatant after mixing with aluminium hydroxide (HPLC): neither compound is observed in the supernatant
  % adsorption to Al—H: 96.0%

## COCCOc1nc(N)c2nc(O)n(Cc3ccc(CP(=O)(O)O)cc3)c2n1 [Compound 6, (4-((6-amino-2-(2-methoxyethoxy)-8-oxo-7H-purin-9(8H)-yl)methyl)benzyl)phosphonic Acid]
[3]; [8]
  SBA titer at day 28: 282
[3]; in vivo
  SBA titer at day 28: 4016
[4]
  solubility in histidine buffer: soluble
Human PBMCs
  activity compared to resiquimod (set to 100%): 35%
Human PBMCs; PBMC, read-out: EC50
  EC50: 1 µM
Human TLR7
  activity compared to resiquimod (set to 100%): 93%
[5]; without Al—H (free form)
  level of compound in muscle: undetectable
[5]; after 24 hours
  compound in inguinal lymph nodes or liver: could not be detected
splenocytes
  activity compared to resiquimod (set to 100%): 210%
splenocytes; Splenocyte, read-out: EC50
  EC50: 0.98 µM

## CCOCc1nc2c(N)nc3ccccc3c2n1CCOCCP(=O)(O)O [Compound 7]
[4]
  solubility in histidine buffer: insoluble
Human PBMCs
  EC50: inactive
Human TLR7
  activity compared to resiquimod (set to 100%): 55%
splenocytes
  EC50: inactive

## CCCCCNc1nc(N)nc(C)c1Cc1ccc(CP(=O)(O)O)cc1OC [Compound 8]
[4]
  solubility in histidine buffer: insoluble
Human PBMCs
  activity compared to resiquimod (set to 100%): 50%
Human PBMCs; PBMC, read-out: EC50
  EC50: 10.4 µM
Human TLR7
  activity compared to resiquimod (set to 100%): 81%
splenocytes
  activity compared to resiquimod (set to 100%): 184%
splenocytes; Splenocyte, read-out: EC50
  EC50: 3.1 µM

## COCCOc1cc2c(nc(O)n2Cc2ccc(CP(=O)(O)O)cc2)c(N)n1 [Compound 67, (4-((4-amino-6-(2-methoxyethoxy)-2-oxo-2,3-dihydro-1H-imidazo[4,5-c]pyridin-1-yl)methyl)benzyl)phosphonic Acid]
[3]; [8]
  SBA titer at day 28: 64
[3]; in vivo
  SBA titer at day 28: 949
[4]
  solubility in histidine buffer: soluble
Human PBMCs
  activity compared to resiquimod (set to 100%): 59%
Human PBMCs; PBMC, read-out: EC50
  EC50: 0.8 µM
Human TLR7
  activity compared to resiquimod (set to 100%): 103%
[5]; +Al—H
  level of compound in muscle: readily detected
[5]; without Al—H (free form)
  level of compound in muscle: undetectable
Serum cytokines
  systemic cytokines, effect of adsorption to Al—H: generally reduced or unaffected
[2]
  % adsorption to Al—H: 82%
splenocytes
  activity compared to resiquimod (set to 100%): 142%
splenocytes; Splenocyte, read-out: EC50
  EC50: 9.3 µM

## CCOCc1nc2c(N)nc3ccccc3c2n1CCOCCOCCOCCP(=O)(O)O [Compound 68, (2-(2-(2-(2-(4-amino-2-(ethoxymethyl)-1H-imidazo[4,5-c]quinolin-1-yl)ethoxy)ethoxy)ethoxy)ethyl)phosphonic Acid]
[3]; in vivo
  SBA titer at day 28: 404
[4]
  solubility in histidine buffer: soluble
Human PBMCs
  EC50: inactive
Human TLR7
  activity compared to resiquimod (set to 100%): 75%
[5]; +Al—H
  level of compound in muscle: readily detected
[5]; without Al—H (free form)
  level of compound in muscle: undetectable
Serum cytokines
  systemic cytokines, effect of adsorption to Al—H: generally reduced or unaffected
[2]
  % adsorption to Al—H: 94%
splenocytes
  EC50: inactive

## CCCCCNc1nc(N)nc(C)c1Cc1ccc(CP(=O)(O)O)cc1 [Compound 69]
[4]
  solubility in histidine buffer: insoluble
Human PBMCs
  EC50: inactive
Human TLR7
  activity compared to resiquimod (set to 100%): 36%
splenocytes
  EC50: inactive

## CCCCCNc1nc(N)nc(C)c1Cc1ccc(OCCOCCC(F)(F)P(=O)(O)O)cc1OC [Compound 71, (3-(2-(4-((2-amino-4-methyl-6-(pentylamino)pyrimidin-5-yl)methyl)-3-methoxyphenoxy)ethoxy)-1,1-difluoropropyl)phosphonic Acid]
[3]; [8]
  SBA titer at day 28: 65
[3]; in vivo
  SBA titer at day 28: 1653
[4]
  solubility in histidine buffer: soluble
Human PBMCs
  activity compared to resiquimod (set to 100%): 50%
Human PBMCs; PBMC, read-out: EC50
  EC50: 9.5 µM
Human TLR7
  activity compared to resiquimod (set to 100%): 53%
[5]; +Al—H
  level of compound in muscle: readily detected
[5]; without Al—H (free form)
  level of compound in muscle: undetectable
Serum cytokines
  systemic cytokines, effect of adsorption to Al—H: generally reduced or unaffected
[2]
  % adsorption to Al—H: 85%
splenocytes
  activity compared to resiquimod (set to 100%): 239%
splenocytes; Splenocyte, read-out: EC50
  EC50: 10.5 µM

## Cc1ccc2c(c1)nc(N)c1ncc(CCc3ccc(OP(=O)(O)O)cc3C)cc12 [Compound 102]
[2]
  Adsorption Efficiency to aluminum hydroxide: 85.1%
[2]; listed as compound 102
  Adsorption Efficiency to aluminum hydroxide: > 80%

## Cc1ccc(CCc2cnc3c(N)nc4cc(C)ccc4c3c2)c(C)c1 [O, reference compound]
[2]
  % adsorption to Al—H: fails to adsorb
[6]
  association with Al—H particles: seen as a separate population

## CCOCc1nc2c(N)nc3ccccc3c2n1CC(C)(C)O [resiquimod, reference compound]
[3]; 5CVMB, CD-1 mice, days 0 & 14, (e) resiquimod+Al—H, positive control
  SBA titer at day 28: 1033
